Source: patent US7709471B2, “Compounds” (AstraZeneca AB, priority 2006, dated 2010)

Legend:
[1] = molecular target: recombinant Plk1 (Homo sapiens, UniProt P53350); experiment: In Vitro Plk1 Enzyme Assay (SPA, GST-Cdc25C phosphorylation); type: biochemical; details: ATP 64 nM, 90 minutes, read-out: IC50 (Plk1 enzyme inhibition)
[2] = tested on: human colon tumour cell line HT29; experiment: Cellular Assay (phosphohistone H3 Ser10 mitotic marker, HT29); type: cell-based; details: HT-29, 24 h, HT29 cells, read-out: IC50 (cellular assay, phosphohistone H3)

recombinant Plk1, sequence (P53350 whole entry): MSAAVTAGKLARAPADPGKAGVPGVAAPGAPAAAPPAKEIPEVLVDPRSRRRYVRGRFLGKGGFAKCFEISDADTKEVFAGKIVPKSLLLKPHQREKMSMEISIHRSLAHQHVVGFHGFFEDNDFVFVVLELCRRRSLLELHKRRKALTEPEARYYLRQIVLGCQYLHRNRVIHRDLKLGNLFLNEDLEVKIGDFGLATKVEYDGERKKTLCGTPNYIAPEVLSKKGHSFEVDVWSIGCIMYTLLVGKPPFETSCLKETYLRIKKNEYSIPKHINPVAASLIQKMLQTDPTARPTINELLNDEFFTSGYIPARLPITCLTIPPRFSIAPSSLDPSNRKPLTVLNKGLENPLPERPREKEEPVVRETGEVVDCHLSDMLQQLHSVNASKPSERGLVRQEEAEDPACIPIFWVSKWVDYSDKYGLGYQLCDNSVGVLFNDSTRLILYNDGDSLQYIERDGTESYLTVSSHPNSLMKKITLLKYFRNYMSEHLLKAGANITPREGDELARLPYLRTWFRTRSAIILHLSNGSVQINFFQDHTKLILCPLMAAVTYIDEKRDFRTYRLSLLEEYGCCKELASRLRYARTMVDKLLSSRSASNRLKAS

Row | IC50 [1] [nM] | IC50 [2] [nM] | SMILES
1 | < 1000 | < 30000 | CN(C)CC(C)(C)CNC(=O)c1ccc(Nc2ncc3c(n2)N(c2ccccc2)CCC(=O)N3C)cc1 [Example 223, N-(3-dimethylamino-2,2-dimethyl-propyl)-4-[(2-methyl-3-oxo-6-phenyl-2,6,8,10-tetrazabicyclo[5.4.0]undeca-8,10,12-trien-9-yl)amino]benzamide]
2 | < 300 | < 300 | COc1cc(C(=O)NC2CCN(C)CC2)ccc1Nc1ncc2c(n1)N(C1CCCC1)CC1(CC1)C(=O)N2C [Example 246, 4-(9′-cyclopentyl-5′-methyl-6′-oxo-5′,6′,8′,9′-tetrahydrospiro[cyclopropane-1,7′-pyrimido[5,4-b][1,4]diazepine]-2′-ylamino)-N-(1-methylpiperidin-4-yl)-3-methoxybenzamide]
3 | < 300 | < 300 | COc1cc(C(=O)N[C@@H]2CCN(C)C2)ccc1Nc1ncc2c(n1)N(C1CCCC1)CCC(=O)N2C [Example 62, 4-[(6-cyclopentyl-2-methyl-3-oxo-2,6,8,10-tetrazabicyclo[5.4.0]undeca-8,10,12-trien-9-yl)amino]-3-methoxy-N-[(3R)-1-methylpyrrolidin-3-yl]benzamide]
4 | < 300 | < 300 | CN1C(=O)CCN(C2CCCC2)c2nc(Nc3ccc(C(=O)NCCN4CCCC4)cc3Cl)ncc21 [Example 318, 3-chloro-4-[(2-cyclopentyl-6-methyl-5-oxo-2,6,9,11-tetrazabicyclo[5.4.0]undeca-7,9,11-trien-10-yl)amino]-N-(2-pyrrolidin-1-ylethyl)benzamide]
5 | < 300 | < 1000 | COc1ccc(NC(C)=O)cc1Nc1ncc2c(n1)N(C1CCCC1)CCC(=O)N2C [Example 176, N-[3-[(6-cyclopentyl-2-methyl-3-oxo-2,6,8,10-tetrazabicyclo[5.4.0]undeca-8,10,12-trien-9-yl)amino]-4-methoxy-phenyl]acetamide]
6 | < 300 | < 300 | CN1CCC(NC(=O)c2ccc(Nc3ncc4c(n3)N(C3CCCC3)CCC(=O)N4C)c(F)c2)CC1 [Example 194, 4-[(6-cyclopentyl-2-methyl-3-oxo-2,6,8,10-tetrazabicyclo[5.4.0]undeca-8,10,12-trien-9-yl)amino]-3-fluoro-N-(1-methyl-4-piperidyl)benzamide]
7 | < 300 | < 300 | COc1cc(C(=O)NCCN2CCOCC2)ccc1Nc1ncc2c(n1)N(C1CCCC1)CCC(=O)N2C [Example 13, 4-[(6-cyclopentyl-2-methyl-3-oxo-2,6,8,10-tetrazabicyclo[5.4.0]undeca-8,10,12-trien-9-yl)amino]-3-methoxy-N-(2-morpholin-4-ylethyl)benzamide]
8 | < 300 | < 300 | COc1cc(C(=O)NC2CCN(C)CC2)c(Cl)cc1Nc1ncc2c(n1)N(C1CCCC1)CCC(=O)N2C [Example 320, 2-chloro-4-[(2-cyclopentyl-6-methyl-5-oxo-2,6,9,11-tetrazabicyclo[5.4.0]undeca-7,9,11-trien-10-yl)amino]-5-methoxy-N-(1-methyl-4-piperidyl)benzamide]
9 | < 300 | < 300 | COc1cc(C(=O)NC2CCN(C)CC2)ccc1Nc1ncc2c(n1)N(C1CCCCC1)CC1(CC1)C(=O)N2C [Example 430, 4-(9′-cyclohexyl-5′-methyl-6′-oxo-5′,6′,8′,9′-tetrahydrospiro[cyclopropane-1,7′-pyrimido[5,4-b][1,4]diazepine]-2′-ylamino)-3-methoxy-N-(1-methyl-4-piperidyl)benzamide]
10 | < 1000 | < 30000 | COCC(C)N1CCC(=O)N(C)c2cnc(Nc3ccc(C(=O)NC4CCN(C)CC4)cc3OC)nc21 (stereo not shown) [Example 230, 3-methoxy-4-[[6-(1-methoxypropan-2-yl)-2-methyl-3-oxo-2,6,8,10-tetrazabicyclo[5.4.0]undeca-7,9,11-trien-9-yl]amino]-N-(1-methyl-4-piperidyl)benzamide]
11 | < 300 | < 300 | CCN1CCC(=O)N(C)c2cnc(Nc3ccc(C(=O)NC4CCN(C)CC4)cc3OC)nc21 [Example 210, 4-[(6-ethyl-2-methyl-3-oxo-2,6,8,10-tetrazabicyclo[5.4.0]undeca-7,9,11-trien-9-yl)amino]-3-methoxy-N-(1-methyl-4-piperidyl)benzamide]
12 | < 300 | < 300 | CCC1CN(C2CCCC2)c2nc(Nc3ccc(C(=O)NC4CCN(C)CC4)cc3OC)ncc2N(C)C1=O (single isomer, unassigned) [Example 236]
13 | < 300 | < 300 | COc1cc(C(=O)N[C@H]2[C@@H]3CN(C)C[C@@H]32)ccc1Nc1ncc2c(n1)N(C1CCCC1)CCC(=O)N2C [Example 64, 4-[(6-cyclopentyl-2-methyl-3-oxo-2,6,8,10-tetrazabicyclo[5.4.0]undeca-8,10,12-trien-9-yl)amino]-3-methoxy-N-[(1S,5R)-3-methyl-3-azabicyclo[3.1.0]hex-6-yl]benzamide]
14 | < 300 | < 300 | COc1cc(C(=O)NCC(C)(C)CN)ccc1Nc1ncc2c(n1)N(C1CCCC1)CCC(=O)N2C [Example 46, N-(3-amino-2,2-dimethyl-propyl)-4-[(6-cyclopentyl-2-methyl-3-oxo-2,6,8,10-tetrazabicyclo[5.4.0]undeca-8,10,12-trien-9-yl)amino]-3-methoxy-benzamide]
15 | < 1000 | < 300 | COc1cc(N2CCCN(C)CC2)ccc1Nc1ncc2c(n1)N(C1CCCC1)CCC(=O)N2C [Example 109, 6-cyclopentyl-9-[[2-methoxy-4-(4-methyl-1,4-diazepan-1-yl)phenyl]amino]-2-methyl-2,6,8,10-tetrazabicyclo[5.4.0]undeca-8,10,12-trien-3-one]
16 | < 100000 | < 300 | COc1cc(C(=O)Nc2cccnc2)ccc1Nc1ncc2c(n1)N(C1CCCC1)CCC(=O)N2C [Example 74, 4-[(6-cyclopentyl-2-methyl-3-oxo-2,6,8,10-tetrazabicyclo[5.4.0]undeca-8,10,12-trien-9-yl)amino]-3-methoxy-N-pyridin-3-yl-benzamide]
17 | < 300 | < 300 | COc1cc(C(N)=O)ccc1Nc1ncc2c(n1)N(C1CCCC1)CCC(=O)N2C [Example 92, 4-[(6-cyclopentyl-2-methyl-3-oxo-2,6,8,10-tetrazabicyclo[5.4.0]undeca-8,10,12-trien-9-yl)amino]-3-methoxy-benzamide]
18 | < 300 | < 300 | CCCN1CCC(NC(=O)c2ccc(Nc3ncc4c(n3)N(C3CCCC3)CCC(=O)N4C)c(OC)c2)CC1 [Example 314, 4-[(2-cyclopentyl-6-methyl-5-oxo-2,6,9,11-tetrazabicyclo[5.4.0]undeca-7,9,11-trien-10-yl)amino]-3-methoxy-N-(1-propyl-4-piperidyl)benzamide]
19 | < 300 | < 300 | COc1cc(C(=O)NC2CCN(C)CC2)ccc1Nc1ncc2c(n1)N(C1CCCC1)CC(C)C(=O)N2C (single isomer, unassigned) [Example 240]
20 | < 300 | < 300 | COc1cc(C(=O)NCCCCN(C)C)ccc1Nc1ncc2c(n1)N(C1CCCC1)CCC(=O)N2C [Example 21, 4-[(6-cyclopentyl-2-methyl-3-oxo-2,6,8,10-tetrazabicyclo[5.4.0]undeca-8,10,12-trien-9-yl)amino]-N-(4-dimethylaminobutyl)-3-methoxy-benzamide]
